Data taken from PubChem BioAssay AID492986 (Sanford-Burnham Center for Chemical Genomics, 2010).
Calls of active or inactive are those of the source.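 The calls were made as follows: active = IC50 below 20 µM; inactive = the rest.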

Target: Apelin receptor (Homo sapiens) (UniProt P35414)
Experiment: blockers of apelin-13-driven APJ signaling – cell-based, CHO-K1 AGTRL-1, PathHunter luminescence, set 4, SAR follow-up (AID 492986)
Conditions: CHO-K1 AGTRL-1 beta-arrestin

Apelin receptor (Homo sapiens), sequence (P35414 whole entry, looked up): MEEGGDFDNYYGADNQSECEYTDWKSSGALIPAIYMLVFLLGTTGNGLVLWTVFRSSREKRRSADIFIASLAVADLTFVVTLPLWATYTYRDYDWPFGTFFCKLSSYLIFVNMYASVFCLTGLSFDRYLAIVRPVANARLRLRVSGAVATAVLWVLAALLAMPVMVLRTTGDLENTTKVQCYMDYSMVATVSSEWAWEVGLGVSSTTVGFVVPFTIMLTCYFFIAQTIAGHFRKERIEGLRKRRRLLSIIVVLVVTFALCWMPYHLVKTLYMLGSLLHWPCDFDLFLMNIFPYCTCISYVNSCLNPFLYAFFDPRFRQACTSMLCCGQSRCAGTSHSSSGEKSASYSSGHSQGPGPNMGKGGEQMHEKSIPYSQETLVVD

Row | IC50 | Structure (SMILES)
1 | > 79 µM (inactive) | O=c1cc(CSc2ccc(F)cc2)occ1O
2 | > 79 µM (inactive) | Cc1cc(C)nc(SCc2cc(=O)c(OS(=O)(=O)c3ccccc3)co2)n1
3 | > 79 µM (inactive) | Cc1cc(C)nc(SCc2cc(=O)c(OS(=O)(=O)c3ccc([N+](=O)[O-])cc3)co2)n1
4 | > 79 µM (inactive) | Cc1ccnc(SCc2cc(=O)c(OC(=O)c3cccc(C#N)c3)co2)n1
5 | > 79 µM (inactive) | Cc1ccnc(SCc2cc(=O)c(NC(=O)c3ccccc3)co2)n1
6 | > 79 µM (inactive) | O=C(Oc1coc(CCl)cc1=O)c1ccc(Cl)c([N+](=O)[O-])c1
